Measurements from patent publication US9765063B2, “Amido compounds as RORγt modulators and uses thereof” (New York University, priority 2011, dated 2017).
Where two headings read alike, the source gives them in different places.

Assays:
[1] = biological target: T1, RORγt (Mus musculus, UniProt P51450); assay: RORγt S2 cell reporter assay (Gal4-RORγt fusion, UAS-luciferase); assay type: cell-based; conditions: for IC50: Drosophila S2 cells, luciferase reporter, read-out: IC50; for Emax: % of the maximal response of control inhibitor (Digoxin), set at 100%, read-out: Efficacy (%)
T1 construct: expressed in transfected cells; the other entry of the earlier key: GAL4 (P04386, Regulatory protein GAL4)
Excerpt: Methods: The Drosophila S2 cell line was originally purchased from Invitrogen and was maintained in Schneider's medium supplemented with 10% heat-inactivated bovine fetal calf serum and antibiotics (Invitrogen). […] The resulting chimeric gene was subcloned into the copper inducible pMT/V5-His A vector (available from Invitrogen).
Renilla luciferase construct under the polIII promoter was obtained from Dr. Dasgupta's laboratory (NYU medical center). In order to generate stable cell lines, cells were co-transfected with pMT-G4DBD-RORγt, pMT-G4DBD-RORα, pMT-G4DBD-DHR3, or pMT-G4DBDVP16 and pHygro plasmids (Invitrogen) and screened for resistant colonies in the presence of hygromycin (0.3 mg/mL). […] Using similar methods, stable clones with genomic integration of the luciferase reporters and other reporters were generated such as pMT-RORα_luc, pMT-DHR3_luc, or pMT-VP16_luc.
Methods: 600 G4DBD-RORγ/γt-luc reporter (#25) or G4DBD-VP16-luc reporter cells were distributed into each well of 1,536-well white bottom plates in 4 μl S2 cell culture volume containing hygromicin (300 μg/ml) and puromycin (2 μg/ml). […] After one-hour incubation, 1 of culture medium solution containing copper sulfate (to final 0.7 mM) and 10 μM RORγ/γt antagonists were added to each well. After 20-hour incubation at ambient temperature, 1.5 μl firefly luciferase detection mix was added and the luciferase activities were measured in 10 min. ViewLux luminometers were used for measuring luciferase signal.
A cell-based reporter assay was used to detect RORγt-mediated activity. This assay, called RORγt employed Drosophila Schneider cells that were stably transfected with two vectors: a gene expressing a fusion of the Gal4 DNA binding domain and RORγt transactivation domain under the control of the metallothionine promoter and a Photinus luciferase reporter regulated by the Gal4 binding site enhancer, UAS. […] Cells (600/well) were dispensed into white solid 1536-well plates (Greiner) using a solenoid-based dispenser. Following transfer of […] compound or DMSO vehicle by a pin tool, the plates were incubated 1 hr at ambient temperature, and 1 uL/well copper sulfate (700 uM final concentration) was added. The plates were centrifuged 15 s at 1000 RPM and incubated 20 hr at ambient temperature. After addition of 1.5 uL Photinus luciferase detection reagent, the plates were incubated 10 min at ambient temperature and then read by a ViewLux (Perkin Elmer) to detect luminescence. […] Efficacy is expressed as % of the maximal response of control inhibitor (Digoxin), set at 100%.

[2] = Half-life in Human Liver Microsomes (HLM); assay type: in vitro ADME; conditions: for % Remaining @ 60 min / half-life at 1 μM / microsomal CLint at 1 μM: 1 μM compound, 0.78 mg/mL HLM, 37° C.; for half-life at 1 μM / microsomal CLint at 1 μM: human, human liver microsomes, pH 7.4; for half-life at 1 μM: Half-life=ln 2/k; for microsomal CLint at 1 μM: read-out: CLint (uM/Min/mg proteins)
Protocol: Test compounds (1 μM) are incubated with 3.3 mM MgCl2 and 0.78 mg/mL HLM (HL101) in 100 mM potassium phosphate buffer (pH 7.4) at 37° C. on the 96-deep well plate. The reaction mixture is split into two groups, a non-P450 and a P450 group. NADPH is only added to the reaction mixture of the P450 group. An aliquot of samples of the P450 group is collected at 0, 10, 30, and 60 min time points, where the 0 min time point indicated the lime at which NADPH is added into the reaction mixture of the P450 group. […] Collected aliquots are extracted with acetonitrile solution containing an internal standard. […] The compound concentration in supernatant is measured by LC/MS/MS system.
The half-life value is obtained by plotting the natural logarithm of the peak area ratio of compounds/internal standard versus time. The slope of the line of best fit through the points yields the rate of metabolism (k). This is converted to a half-life value using following equations: Half-life=ln 2/k

T1 sequence (P51450 with tags, fused parts or gaps): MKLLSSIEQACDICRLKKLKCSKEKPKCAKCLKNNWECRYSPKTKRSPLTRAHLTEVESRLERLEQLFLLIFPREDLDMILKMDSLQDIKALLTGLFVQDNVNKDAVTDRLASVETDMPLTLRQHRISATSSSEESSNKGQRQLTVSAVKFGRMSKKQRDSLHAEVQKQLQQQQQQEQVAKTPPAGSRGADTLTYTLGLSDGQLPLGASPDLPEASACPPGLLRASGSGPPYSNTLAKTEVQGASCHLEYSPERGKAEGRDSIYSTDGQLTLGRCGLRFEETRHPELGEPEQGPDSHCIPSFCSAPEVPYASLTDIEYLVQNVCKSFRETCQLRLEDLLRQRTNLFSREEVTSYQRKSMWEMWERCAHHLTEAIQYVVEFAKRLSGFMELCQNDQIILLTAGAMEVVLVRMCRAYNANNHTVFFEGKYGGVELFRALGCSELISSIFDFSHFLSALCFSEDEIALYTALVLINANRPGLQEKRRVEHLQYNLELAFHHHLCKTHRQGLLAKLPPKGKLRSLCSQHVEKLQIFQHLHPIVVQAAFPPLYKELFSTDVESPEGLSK

Row | Emax ([1]; Table 1) | IC50 ([1]; Table 1) | SMILES | further results
1 | – | – | COc1cc(O)c(C(CC(=O)N2C[C@H](C)C[C@H](C)C2)c2c[nH]c(C)n2)c(OC)c1 (stereo partly drawn) [Compound 203] | IC50 ([1]; Table 1A): 1000 to 10000 nM
2 | – | – | CC1CC(C)CN(C(=O)CC(c2ccc(-n3cncn3)cc2)c2ccc3c(c2)OCO3)C1 (stereo not drawn) [Compound 141, 3-(4-(1H-1,2,4-Triazol-1-yl)phenyl)-3-(benzo[d][1,3]dioxol-5-yl)-1-(3,5-dimethylpiperidin-1-yl)propan-1-one] | % Remaining @ 60 min [2]: 9.02%; stability compared with compounds 150 and 157 ([2]; HLM, Table 3 data): better or improved stability over the compounds with IDs 150 and 157; half-life at 1 μM [2]: 12.9 min; microsomal CLint at 1 μM [2]: 108 µL/min/mg
3 | 103% | 11000 to 50000 nM | COc1cc(O)c(C(CC(=O)N2CC(C)CC(C)C2)c2ccc(S(=O)(=O)N(C)C)cc2)c(OC)c1 (stereo not drawn) [Compound 84] | –
4 | -90.8% | 1000 to 10000 nM | COc1cc(O)c(C(CC(=O)N2CC(C)CC(C)C2)c2csc3ccccc23)c(OC)c1 (stereo not drawn) [Compound 79] | –
5 | – | 1000 to 10000 nM | COc1cc(O)c(C(CC(=O)N2CC(C)CC(C)C2)c2ccc(C(=O)NC3CC3)cc2)c(OC)c1 (stereo not drawn) [Compound 95] | –
6 | – | – | COc1ccc2ccccc2c1C(c1ccc(F)cc1)C(C)(C)C(=O)N1CC(C)CC(C)C1 (stereo not drawn) [Compound 157, reference compound] | % Remaining @ 60 min [2]: 6.78%; half-life at 1 μM [2]: 6.9 min; microsomal CLint at 1 μM [2]: 201 µL/min/mg
7 | 93.6% | < 1000 nM | COc1cc(O)c(C(CC(=O)N2CC(C)CC(C)C2)c2ccc(C(C)=O)cc2)c(OC)c1 (stereo not drawn) [Compound 100, 3-(4-Acetylphenyl)-1-(3,5-dimethylpiperidin-1-yl)-3-(2-hydroxy-4,6-dimethoxyphenyl)propan-1-one] | –
8 | – | – | COc1cc(O)c(C(CC(=O)N2CC(C)C[C@@H](C)C2)c2nc3ccccc3s2)c(OC)c1 (stereo in doubt) [Compound 205, 1-(3,5-Dimethylpiperidin-1-yl)-3-(4,6-dimethoxy-2-hydroxy-phenyl)-3-(benzothiazol-2-yl)propan-1-one] | IC50 ([1]; Table 1A): < 1000 nM
9 | 93.8% | 1000 to 10000 nM | COc1cc(O)c(C(CC(=O)N2CC(C)CC(C)C2)c2cccc(S(C)(=O)=O)c2)c(OC)c1 (stereo not drawn) [Compound 83, 1-(3,5-Dimethylpiperidin-1-yl)-3-(2-hydroxy-4,6-dimethoxyphenyl)-3-(3-(methylsulfonyl)phenyl)propan-1-one] | –
10 | – | – | COc1cc(O)c(C(CC(=O)N2C[C@H](C)C[C@H](C)C2)c2ccc(OC)nc2)c(OC)c1 (stereo partly drawn) [Compound 206, 1-(3,5-Dimethylpiperidin-1-yl)-3-(4,6-dimethoxy-2-hydroxy-phenyl)-3-(2-methoxypyrid-5-yl)propan-1-one] | IC50 ([1]; Table 1A): < 1000 nM
11 | 119% | 11000 to 50000 nM | COc1cc(O)c(C(CC(=O)N2CC(C)CC(C)C2)c2ccncc2)c(OC)c1 (stereo not drawn) [Compound 108, 1-(3,5-Dimethylpiperidin-1-yl)-3-(2-hydroxy-4,6-dimethoxyphenyl)-3-(pyridin-4-yl)propan-1-one] | –
12 | – | – | COc1cc(O)c(C(CC(=O)N2C[C@H](C)C[C@H](C)C2)c2cnccn2)c(OC)c1 (stereo partly drawn) [Compound 204, 1-(3,5-Dimethylpiperidin-1-yl)-3-(4,6-dimethoxy-2-hydroxy-phenyl)-3-(pyrazin-2-yl)propan-1-one] | IC50 ([1]; Table 1A): 1000 to 10000 nM
13 | 94.5% | 1000 to 10000 nM | COc1c(C(CC(=O)N2CC(C)CC(C)C2)c2ccc3c(c2)OCO3)c(O)cc2occc12 (stereo not drawn) [Compound 139] | –
14 | 96.7% | 1000 to 10000 nM | COc1cc(O)c(C(CC(=O)N2CC(C)CC(C)C2)c2ccc(C(N)=O)cc2)c(OC)c1 (stereo not drawn) [Compound 111] | –
15 | 96.9% | 1000 to 10000 nM | COc1cc(O)c(C(CC(=O)N2CC(C)CC(C)C2)c2cccnc2)c(OC)c1 (stereo not drawn) [Compound 106, 1-(3,5-Dimethylpiperidin-1-yl)-3-(2-hydroxy-4,6-dimethoxyphenyl)-3-(pyridin-3-yl)propan-1-one] | –
16 | – | 1000 to 10000 nM | CC1CC(C)CN(C(=O)CC(c2ccc3c(c2)OCO3)c2c(O)ccc3cccnc23)C1 (stereo not drawn) [Compound 146] | –
17 | – | – | COc1cc(OC)c(C(c2ccccc2)C(C)(C)C(=O)N2CC(C)OC(C)C2)c(OC)c1 (stereo not drawn) [Compound 150, reference compound] | % Remaining @ 60 min [2]: 6.79%; half-life at 1 μM [2]: 8 min; microsomal CLint at 1 μM [2]: 173 µL/min/mg
18 | 94.9% | 1000 to 10000 nM | COc1cc(O)c(C(CC(=O)N2CC(C)CC(C)C2)c2cccs2)c(OC)c1 (stereo not drawn) [Compound 107, 1-(3,5-Dimethylpiperidin-1-yl)-3-(2-hydroxy-4,6-dimethoxyphenyl)-3-(thiophen-2-yl)propan-1-one] | –
19 | 87% | < 1000 nM | COc1cc(OC)c(C(CC(=O)N2C[C@H](C)C[C@H](C)C2)c2ccc(C(=O)O)cc2)c(OC)c1 (stereo partly drawn) [Compound 201, 4-(3-(3,5-cis-Dimethylpiperidin-1-yl)-3-oxo-1-(2,4,6-trimethoxyphenyl)-propyl)benzoic acid] | –
20 | – | – | COc1cc(O)c(C(CC(=O)N2C[C@H](C)C[C@H](C)C2)c2ccc(C(=O)O)cc2)c(OC)c1 (stereo partly drawn) [Compound 202, 4-(3-(3,5-cis-Dimethylpiperidin-1-yl)-1-(2-hydroxy-4,6-dimethoxyphenyl)-3-oxopropyl)benzoic acid] | IC50 ([1]; Table 1A): < 1000 nM
21 | 95% | 1000 to 10000 nM | COc1cc(O)c(C(CC(=O)N2CCCC(C)C2)c2cccs2)c(OC)c1 (stereo not drawn) [Compound 70] | –
